The source of these data is article PMC7278776, “Multidrug Resistance Modulation Activity of Silybin Derivatives and Their Anti-Inflammatory Potential” (Antioxidants, 2020).

One assay deals with ABCA2. The experiment in a line: ABCA2 mRNA expression (real-time PCR). It counts as cell-based, human. As to conditions: A2780/DOX, 10 µM combined with doxorubicin at IC25, 48 h. As to the method:
(§1) The A2780/DOX cell line was seeded into 5 cm Petri dishes with DMEM medium at 1 × 10^5 cell/mL. After 24 h, the dishes were washed with PBS and new DMEM medium supplemented with doxorubicin (at concentration equal to IC25) and samples (10 µM) were added. After 48 h of treatment, the cells were washed with PBS and harvested using the standard trypsin-EDTA procedure. The harvested cells were centrifuged (3200× g; 10 min, 4 °C). The supernatant was discarded, and the pellets were washed with 1.5 mL of cooled PBS (5400× g; 10 min, 4 °C). The washing step was repeated with 1 mL of PBS and the cells were centrifuged again (10,000× g; 3 min, 4 °C). Afterwards, the pellets were resuspended in 1 mL of Trizol (Invitrogen, Carlsbad, CA, USA) and transferred into pre-cooled RNase-free microfuge tubes. The samples were stored at −80 °C.
(§2) A Quant-iT RiboGreen RNA Assay Kit (Invitrogen) was used to determine the RNA concentration using the Infinite M200 plate reader (Tecan, Männedor, Switzerland). The cDNA was prepared from 0.5 µg of total RNA using a RevertAid First Strand Synthesis cDNA Kit (MBI Fermentas, Vilnius, Lithuania). The amplification of the ubiquitin C gene fragment was used to determine the quality of cDNA.
(§3) The experiment was performed using the ViiA7 Real-Time polymerase chain reaction (PCR) System (Life Technologies, Camarillo, CA, USA) with a 384-well block. Before quantitative real-time PCR, the master mix was prepared by mixing 2 µL of 8 × diluted cDNA, 1.75 µL of RNase free water, 1 µL of 5 × HotFIREPol Probe quantitative PCR Mix Plus (Solis Biodyne, Tartu, Estonia) and 0.25 µL of specific 20 × TaqMan Gene Expression Assay (Life Technologies), giving 5 µL of final reaction volume. Cycling parameters were: initial hold at 50 °C for 2 min and denaturation at 95 °C for 10 min, followed by 45 cycles consisting of denaturation at 95 °C for 15 s and annealing/extension at 60 °C for 1 min. After each extension phase, the fluorescence values were acquired. Duplicate samples were used for measurement and samples with a standard deviation of duplicates > 1.0 cycle threshold (Ct) were re-analyzed. The real time PCR procedure was maintained according to MIQE (Minimum information for publication of quantitative real-time PCR experiments) guidelines. The software REST 2009 (Qiagen, Hilden, Germany) served to compare relative transcript levels of genes in the cell line.

The subject of another assay is ABCB2. Put plainly: ABCB2 mRNA expression (real-time PCR). In kind it is cell-based, human. As to conditions: A2780/DOX, 10 µM combined with doxorubicin at IC25, 48 h. The method, then: as §1, §2, §3
A further assay relates to A2780/DOX. The experiment in a line: Sensitization of the MDR cell line to doxorubicin. In kind it is cell-based, human.
Another assay concerns ABCA5. The experiment in a line: ABCA5 mRNA expression (real-time PCR). In kind it is cell-based, human. As to conditions: A2780/DOX. The method, then:
as §1, §2, §3

Another assay concerns ABCC5. Put plainly: ABCC5 mRNA expression (real-time PCR). In kind it is cell-based, human. As to conditions: A2780/DOX, 10 µM combined with doxorubicin at IC25, 48 h. The method, then:
as §1, §2, §3

In the next assay the test system is IL-6. The experiment in a line: IL-6 release by LPS-induced macrophages (ELISA). To be noted: for IL-6 (pg/mL): untreated LPS control 1148 ± 35. It counts as cell-based, mouse. The method, then:
To determine the level of inflammatory cytokine IL-6, macrophages were cultivated with LPS (1 µg/mL) and the tested compounds (7–50 µM) for 6 h. After incubation, the plates were centrifuged (1000× g; 10 min, 4 °C) and then the medium was removed and frozen to −80 °C. Prior to the detection, the samples were diluted in ELISA diluent in a 1:10 ratio. Production of the cytokine was determined by uncoated ELISA performed according to the manufacturer’s instructions.

The next assay relates to ABCB6. The experiment in a line: ABCB6 mRNA expression (real-time PCR). As to conditions: A2780/DOX. In kind it is cell-based, human. The method, then:
as §1, with “After 24 h, the dishes were washed with PBS and new DMEM medium supplemented with doxorubicin (at concentration equal to IC25) and samples (10 µM) were added.” left out
as §2, §3

A further assay concerns ABCB10. The experiment in a line: ABCB10 mRNA expression (real-time PCR). It counts as cell-based, human. As to conditions: A2780/DOX. As to the method:
as §1, with “After 24 h, the dishes were washed with PBS and new DMEM medium supplemented with doxorubicin (at concentration equal to IC25) and samples (10 µM) were added.” left out
as §2, §3

Assay [1] deals with nitric oxide (NO) production by LPS-stimulated macrophages (RAW 264.7). Put plainly: NO production by LPS-stimulated macrophages (Griess). In kind it is cell-based, mouse. To be noted: Mus musculus, RAW264.7; RAW 264.7, LPS 1 µg/mL, 24 h; read-out: NO Production, concentration necessary to halve NO production (IC50). As to the method:
Immunomodulatory effect of tested compounds was determined as their ability to decrease nitric oxide (NO) production by LPS-stimulated macrophages (RAW 264.7, Sigma-Aldrich). Briefly, the cells were seeded into the 96-well plate at a density of 1 × 10^6 cells/mL in DMEM medium (supplemented with 2 mM L-glutamine and 1 × antibiotic antimycotic solution). After 48 h, the cells were washed with PBS. The MEM medium enriched with LPS (1 µg/mL) was added to the wells, together with the samples in the concentration range of 6.25–100 µM at a final volume of 100 µL. Indomethacin, a non-steroidal anti-inflammatory drug, was tested as a positive control in the concentration range 6.25–100 µM. After 24 h, the medium was used for the quantification of NO and inflammatory cytokines.
After 15 min, absorbance was recorded at 540 nm.

[2] abbreviates: 10 µM combined with doxorubicin at IC25, 48 h.
Setting [3] is: 10 µM, 48 h, without doxorubicin.

Marks after values point to notes of the source that are not given here.

Experimental for A2780/DOX: A multidrug resistant ovarian sub-line resistant to doxorubicin (A2780/DOX, Sigma-Aldrich) was cultivated in DMEM medium with 10% FBS and 1 × antibiotic antimycotic solution. Every other passage, doxorubicin at the final concentration of 0.1 µM was added to the culture medium to maintain the resistance of the cell line. To perform experiments, the cells were seeded at 1 × 10^5 cell/mL into the wells of a 96-well plate and incubated for 24 h. Afterwards, the cells were washed with PBS and fresh DMEM medium with tested compounds at 10, 20 and 30 µM were added to each well, except for the control wells. Subsequently, the cells were exposed to increasing concentrations of doxorubicin (0.6–20 µM) for 72 h. After incubation, the resazurin assay was performed as described above. The IC50 of doxorubicin was calculated for both the control and the samples and the fold change was counted up. […] The fold change lower than 1 means an antagonistic effect. (1) FOLD CHANGE=IC50 value of DOX cells treated with chemotherapeutic /IC50 value of DOX cells treated with chemotherapeutic and compound

For the compound `COc1cc(C2Oc3cc([C@H]4Oc5cc(O)cc(O)c5C(=O)[C@@H]4O)ccc3OC2CO)ccc1O` (stereo partly shown) [Silybin AB, silybin], in the assay on ABCA2, the “ABCA2 Expression Difference” value is 1.207. Besides, the “ABCB2 Expression Difference” value in the assay with ABCB2 is listed as 18.114. For the same compound, the “Doxorubicin-sensitization rate (ratio of IC50 of doxorubicin and doxorubicin + tested compound)” value is given as “(1.4 ± 0.1) ×” in the assay on A2780/DOX (compound 10 µM); “(1.6 ± 0.1) ×” in the assay with A2780/DOX (compound 20 µM); “(1.7 ± 0.1) ×” with A2780/DOX (compound 30 µM); “(7.7 ± 0.4) ×” in the assay on A2780/DOX (compound 50 µM); roughly 10 × with A2780/DOX (compound 50 µM, listed as silybin AB). Moreover, the “ABCA5 Expression Difference” value stood at 2.122 with ABCA5 (setting [2]) and 1.933 in the assay on ABCA5 (setting [3]). Also, the “ABCC5 Expression Difference” value with ABCC5 came to 1.787. Further, the IC50 with IL-6 (Mus musculus, RAW264.7, RAW 264.7, LPS + compound 6 h, read-out: IL-6, concentration necessary to halve the release (IC50)) came out at 4.8 ± 0.3 µM; in [1] it was 23.6 ± 1.2 µM. In addition, the “IL-6 (pg/mL)” value in the assay with IL-6 (compound 7 µM) is 311 ± 18 ^a pg/mL; in the assay with IL-6 (compound 15 µM) it was 173 ± 5 ^b pg/mL; in the assay with IL-6 (compound 50 µM) it was 83 ± 4 ^b pg/mL. Further, the “ABCB6 Expression Difference” value with ABCB6 (setting [2]) was determined as 1.527; in the assay on ABCB6 (setting [3]), 1.838. Moreover, the “ABCB10 Expression Difference” value in the assay on ABCB10 (setting [2]) is on record as 1.069; in the assay with ABCB10 (setting [3]), 2.204.
